# Experimental data from PubChem BioAssay (NCI).
#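 Five concentrations, 48 hours, 96-well plates. TGI is the concentration that stops growth completely.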
# Assays:
# Assay in all cases: NCI-60 cell line screen, 48 h
# [1] = test system: 786-0 renal
# [2] = test system: A498 renal
# [3] = test system: A549 NSCLC
# [4] = test system: ACHN renal
# [5] = test system: DU-145 prostate
# [6] = test system: HS 578T breast
# [7] = test system: LOX IMVI melanoma
# [8] = test system: M14 melanoma
# [9] = test system: NCI-H226 lung
# [10] = test system: RPMI-8226 leukemia
# [11] = test system: RXF 393 renal
# [12] = test system: SK-OV-3 ovarian
# [13] = test system: SR leukemia
# [14] = test system: UACC-257 melanoma
# [15] = test system: UACC-62 melanoma
# [16] = test system: EKVX NSCLC
# [17] = test system: K-562 leukemia
# [18] = test system: SNB-75 CNS
SMILES,TGI [1] [µM],TGI [2] [µM],TGI [3] [µM],TGI [4] [µM],TGI [5] [µM],TGI [6] [µM],TGI [7] [µM],TGI [8] [µM],TGI [9] [µM],TGI [10] [µM],TGI [11] [µM],TGI [12] [µM],TGI [13] [µM],TGI [14] [µM],TGI [15] [µM],TGI [16] [µM],TGI [17] [µM],TGI [18] [µM]
COc1cc(/C=N\N(C)C)cc(/C=N/N(C)C)c1O,74.1,> 100,> 100,87.9,> 100,20.9,58.7,83.9,50.6,50.2,> 100,55.4,32.3,98.5,> 100,–,–,–
Nc1cccnc1NCC1(CO)CCCC1,> 100,> 100,> 100,> 100,> 100,> 100,> 100,–,> 100,> 100,> 100,> 100,> 100,> 100,> 100,> 100,> 100,> 100
CCOCc1c(C)cc(C)c(C2C(C(=O)c3ccccc3)N3c4ccccc4C=CC3C2(C#N)C(=O)OCC)c1C (centres undefined),> 100,> 100,–,> 100,> 100,> 100,> 100,> 100,–,> 100,> 100,–,> 100,> 100,> 100,67.3,> 100,–
COC(=O)c1cc2c(cc1CC1Cc3cc4c(cc3C1=O)CCC4)CCC2 (centres undefined),> 100,> 100,> 100,> 100,> 100,> 100,> 100,> 100,> 100,> 100,–,> 100,> 100,> 100,> 100,> 100,> 100,> 100
O=C1N=C(SC2OC(CO)C(O)C(O)C2O)S/C1=C\c1ccccc1 (centres undefined),> 100,> 100,> 100,> 100,> 100,> 100,> 100,> 100,> 100,> 100,> 100,> 100,> 100,> 100,> 100,–,> 100,> 100
O=c1[nH]nc(-c2ccccc2)n1/N=C/c1ccc([N+](=O)[O-])cc1,22.9,49.7,> 100,> 100,> 100,98.2,> 100,> 100,> 75,> 100,28.1,9.34,> 100,> 100,> 100,> 100,> 100,34.9
NCCCCC(NC(=O)C(N)Cc1ccc(O)cn1)C(=O)O (centres undefined),> 100,> 100,> 100,> 100,> 100,> 100,> 100,–,> 100,> 100,> 100,–,> 100,> 100,–,> 100,> 100,–
C=C1[C@H](OC(C)=O)[C@H]2[C@@H](OC(C)=O)[C@@H](C)C[C@]2(C)C(=O)[C@H](C)/C=C/C(C)(C)C(=O)[C@H](OCC(C)C)[C@H]1OC(C)=O,> 25,> 25,–,> 25,> 25,> 25,> 25,> 25,> 25,–,> 25,> 25,> 25,> 25,> 25,> 25,–,> 25
c1ccc(-c2nc3ccccc3n3c(CN4CCCCC4)nnc23)cc1,> 100,> 100,> 100,> 100,> 100,> 100,> 100,> 100,> 100,> 100,> 100,> 100,> 100,> 100,> 100,> 100,> 100,40.7
O=c1[nH]c(=O)n(CCOc2ccccc2)cc1Nc1ccccc1,> 100,> 100,> 100,> 100,> 100,> 100,> 100,> 100,–,> 100,> 100,–,> 100,> 100,> 100,> 100,> 100,–
O=C1CN(C(=O)C2CCCN2C(=O)C2CCCN2)C(=O)CN1 (centres undefined),> 100,> 100,> 100,> 100,> 100,> 100,> 100,> 100,> 100,> 100,> 100,> 100,> 100,–,> 100,> 100,> 100,> 100
CC(C)(C)OC(=O)CN1C(=O)CC1CC(=O)c1ccccc1 (centres undefined),32.9,64,> 100,41.7,34.2,84.2,31.3,30.4,43.5,15.3,43.5,–,19.1,35.2,41.3,35.7,34.2,–
COc1ccccc1N(CN1C(=O)CCC1C(=O)O)C(C)=O (centres undefined),> 100,> 100,> 100,> 100,> 100,> 100,> 100,> 100,> 100,> 100,> 100,> 100,> 100,> 100,> 100,> 100,> 100,> 100
O=[N+]([O-])c1ccc2c(c1)S(=O)(=O)N1Cc3ccccc3CCN21,> 100,> 100,> 100,> 100,> 100,> 100,> 100,> 100,> 100,> 100,> 100,–,> 100,> 100,> 100,> 100,> 100,> 100
CCOC(=O)c1cc2c([nH]1)c(O)cc1c2ccn1Cc1ccccc1,32.6,82.4,30.3,–,34.3,77.4,28.1,47.5,36.9,27.9,21.9,39.5,16.9,34.8,28.8,26.7,25.3,50.2
CC(=O)N(C(C)=O)n1c(Cc2ccc(Cl)cc2)n[nH]c1=O,> 100,> 100,> 100,> 100,> 100,> 100,> 100,> 100,> 100,> 100,> 100,> 100,> 100,> 100,> 100,> 100,> 100,> 100
CCCCCCCCCCCCN(CC(O)C(O)C(OC1OC(CO)C(O)C(O)C1O)C(O)CO)C(=O)CCCCCCCCCCC (centres undefined),33.8,41.8,55.3,31,35.8,82.7,41.3,39.7,44.6,50.9,67.5,52.6,57.8,36.6,38.8,34.4,35.5,35
N#Cc1c(=O)n(-c2ccccc2)c(O)c2c(N)n[nH]c12,> 100,> 100,> 100,–,> 100,> 100,> 100,> 100,> 100,> 100,> 100,> 100,> 100,> 100,> 100,> 100,> 100,> 100
CC1(C)C2CCC(CN)(C2)C1N (centres undefined),> 100,> 100,> 100,> 100,> 100,> 100,> 100,> 100,> 100,> 100,> 100,> 100,> 100,> 100,> 100,> 100,> 100,> 100
CN(C)c1ccc(/C=C2/NC(=S)NC2=O)cc1,> 100,–,> 100,> 100,> 100,> 100,> 100,> 100,> 100,> 100,> 100,> 100,> 100,> 100,> 100,> 100,–,> 100
OC1(c2ccc(Cl)cc2)C(N2CCCC2)c2ccccc2C2=NCCN21 (centres undefined),> 100,60.9,> 100,> 100,> 100,89.9,36.7,31.7,–,32.1,91.9,57.6,41.1,40.6,41.3,> 100,47.5,–
CC(C)NC(NC(C)C)=C(S(=O)(=O)C(F)(F)C(F)(F)C(F)(F)C(F)(F)F)S(=O)(=O)C(F)(F)C(F)(F)C(F)(F)C(F)(F)F,> 100,> 100,> 100,> 100,> 100,> 100,> 100,> 100,> 100,> 100,–,> 100,> 100,> 100,> 100,> 100,> 100,> 100
COc1cc(/C=C2/SC(c3ccccc3)N(c3ccccc3Cl)C2=O)cc(OC)c1OC (centres undefined),> 100,> 100,> 100,> 100,> 100,> 100,41.7,> 100,> 100,52.3,70.2,63.4,58.9,> 100,> 100,> 100,> 100,–
COc1ccc(C(=O)c2sc(N(C)C)nc2-c2ccccc2)cc1,> 100,93.1,> 100,> 100,> 100,> 100,> 100,> 100,> 100,> 100,> 100,71.8,> 100,86.1,> 100,–,> 100,80.1
O=C(O)COCC(=O)N(CCOCCN(Cc1ccccc1)C(=O)COCC(=O)O)Cc1ccccc1,> 100,> 100,> 100,> 100,> 100,> 100,> 100,> 100,> 100,> 100,> 100,> 100,> 100,> 100,> 100,> 100,> 100,–
Cc1cc(C)c2c(O)c(S(=O)(=O)c3ccc(Cl)cc3)c(=O)oc2c1,> 100,> 100,> 100,–,> 100,> 100,–,> 100,> 100,> 100,> 100,> 100,> 100,> 100,> 100,93,> 100,> 100
COC(=O)CC(c1cn(S(=O)(=O)c2ccc(C)cc2)c2ccccc12)C1C[C@@H](C(=O)OC)N(C(=O)OC(C)(C)C)C1=O (some centres undefined),> 100,> 100,> 100,> 100,> 100,> 100,> 100,> 100,> 100,35.4,> 100,–,10.4,> 100,> 100,> 100,> 100,> 100
